In PMC10303920, “Competition between skin antimicrobial peptides and commensal bacteria in type 2 inflammation enables survival of S. aureus” (Cell reports, 2023):

Assays:
[1] = tested on: ShA9-WT and ShA9-ΔLanti; assay: Growth inhibition of ShA9-WT and ShA9-ΔLanti by human and murine AMPs (OD600); format: cell-based, Staphylococcus hominis; conditions: 90% RPMI/10% TSB, 30°C, 24 h, mean of duplicate technical replicates, Figure 4E
Experimental: Staphylococcus strains collected from normal skin from healthy subjects or lesional skin from AD patients were cultured in TSB overnight. Bacteria were washed with PBS and resuspended to 90% RPMI media and 10% TSB. Bacteria (1 × 10^5 CFU/mL) were incu bated with or without human AMPs (LL-37, hBD-2, hBD-3) or mouse cathelin-related AMP (CRAMP) in 90% RPMI media and 10% TSB (100 μL) in each well of a 96-well plate at 30°C for 24 h. Bacterial growth was assessed by measuring OD600. Minimal inhibitory concentration was defined as the lowest concentration which prevent visible bacterial growth (<5% of OD600 value of the con trol well).

[2] = tested on: ShA9-ΔLanti; assay: Transmission electron microscopy of ShA9-ΔLanti; format: cell-based, Staphylococcus hominis; conditions: 30°C, 30 min, Figure 5C
Experimental: To observe the effect of synergistic antimicrobial action between host AMP and lantibiotic on ShA9, ShA9-DLanti mutant were incubated in 90% RPMI media/10% TSB containing LL-37 ([…]), ammonium sulfate precipitation fraction of conditioned media from ShA9-WT (25% calculated from the original volume of media), or combination at 30°C for 30 min. Bacterial cells were washed with PBS twice and immediately fixed by re-suspending in modified Karnovsky’s fixative for 4 h, followed by 1% osmium tetroxide in 0.1 M cacodylate buffer for 1 h on ice. The cells were stained with 2% uranyl acetate for 1 h on ice, dehydrated in a graded series of ethanol (50–100%), washed with acetone, and then embedded with Durcupan. Sections (60 nm) were post-stained with 2% uranyl acetate for 5 min and Sato’s lead stain for 1 min. Grids were viewed using a JEOL JEM-1400Plus (JEOL, Peabody, MA) transmission electron microscope and photographed using a Gatan OneView 4 K digital camera (Gatan, Pleasanton, CA).

## LL-37
[1]
  Sensitivity of ShA9-WT to the AMP compared with ShA9-ΔLanti (growth inhibition): more sensitive
[2]; LL-37 or ShA9-CM alone
  Electron microscopy findings in ShA9-ΔLanti after exposure to the single agent alone: did not show these changes
[2]; combination
  Electron microscopy findings in ShA9-ΔLanti after the combination of lantibiotic-containing CM and LL-37: promote membrane damage
